# Laboratory results reported in patent publication US20220296573A1, “NOVEL COMPOUNDS AND PHARMACEUTICAL COMPOSITIONS THEREOF FOR THE TREATMENT OF INFLAMMATORY DISORDERS” (Galapagos NV, priority 2019, published 2022).
# What was measured:
# human IRAK-4 = target: T1, human IRAK-4 (Homo sapiens, UniProt Q9NWZ3); test: Phosphorylation IC50 determination for human IRAK-4 (ADP-Glo Kinase Assay); conditions: human IRAK-4, substrate RIP140, Km ATP; read-out: IRAK4 ADPglo biochemical assay IC50
# T1 construct: purchased Carna Biosciences 09 145
# T1 sequence (Q9NWZ3 1-460): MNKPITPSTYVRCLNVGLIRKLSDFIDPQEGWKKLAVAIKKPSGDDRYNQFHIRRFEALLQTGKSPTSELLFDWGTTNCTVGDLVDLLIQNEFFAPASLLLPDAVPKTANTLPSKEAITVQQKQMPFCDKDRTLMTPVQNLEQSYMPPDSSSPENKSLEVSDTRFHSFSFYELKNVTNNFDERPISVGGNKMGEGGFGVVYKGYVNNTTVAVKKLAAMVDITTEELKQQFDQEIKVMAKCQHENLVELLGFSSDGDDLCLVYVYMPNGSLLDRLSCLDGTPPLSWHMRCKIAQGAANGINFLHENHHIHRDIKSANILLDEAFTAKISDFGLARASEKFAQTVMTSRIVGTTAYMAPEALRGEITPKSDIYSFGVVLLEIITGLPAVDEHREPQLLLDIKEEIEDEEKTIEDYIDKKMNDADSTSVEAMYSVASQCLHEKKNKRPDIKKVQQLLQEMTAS
# Protocol: The phosphorylation of the substrate RIP140 (SEQ ID1) by IRAK4 at Km ATP was detected with the ADP-Glo Kinase Assay (Promega, Cat #V9103), a luminescent kinase assay which measures the ADP formed from a kinase reaction. (Zegzouti et al. 2009) In a second step the kinase reaction was terminated and all the remaining ATP was depleted. In a final step the ADP was converted into ATP and this newly synthesized ATP was measured by using a luciferase/luciferin reaction with a luminescent reader. The luminescent signal positively correlated with kinase activity, in particular kinase inhibition giving a decrease of the luminescent signal.
# For the semi-automated assay, the positive control (100% inhibition) was prepared by diluting 10 mM staurosporine stock mixture (20 μL) in water (3.8 mL) and DMSO (180 μL), thus resulting in a […] staurosporine solution at 1% DMSO (final concentration after further dilution in the kinase reaction).
# For the automated assay, no pre-dilution of the 10 mM staurosporine stock was made. 10 mM staurosporine was spotted directly in the assay plate using acoustic dispensing and complemented with DMSO to result in a similar final concentration as mentioned above.
# For the semi-automated assay, the negative control (0% inhibition) was prepared by mixing water (3.8 mL) and DMSO (200 μL) resulting in a final concentration of 1% DMSO after further dilution in the kinase reaction. For the automated assay no pre-dilution of DMSO was done. 100% DMSO was spotted directly on the assay plate.
# The assay buffer solution was prepared at a concentration corresponding to 5 fold the final (most diluted) assay concentration by mixing a solution of 125 mM TRIS pH 7.5+0.05% Triton X-100+2.5 mM EGTA (5.27 mL) with 1M mgCl2 (72 μL), 1M DTT (57.6 μL), and 200 mM MnCl2 (360 μL).
# For example, for the semi-automated method, the enzyme-substrate mixture was prepared by mixing water (3999 μL), assay buffer solution (1380 μL), 1 mM RIP140 (138 μL—SEQ ID1), and 200 ng/mL IRAK 4 (3.45 μL Carna Biosciences, 09 145).
# For semi-automated method, the ATP mixture was prepared at a concentration corresponding to 2.5 fold the final (most diluted) assay concentration of the semi-automated method and 1.5 fold the final (most diluted) assay concentration of the automated method. For example, for the semi-automated method, the ATP mixture was prepared by mixing water (4126 μL), assay buffer solution (1380 μL), and 10 mM ATP (13.80 μL).
# The assay are performed either in a semi-automated or fully automated manner. The assay volume and the incubation time of the ADP detection were different accordingly the method used.
# The compounds were prepared as a serial dilution of 10 point dose responses with 1/5 dilution steps in 100% DMSO starting from 2 mM highest concentration, diluted 1/20 in water. 1 μL was transferred dry to the assay plates.
# On each assay plate 32 wells of each control (positive & negative) were added, followed by 2 μL enzyme-substrate mixture.
# The reaction was started by adding 2 μL diluted ATP (final concentration Km ATP) on the assay plates. Plates were centrifuged for a few seconds at 1000 rpm followed by an incubation at r.t. for 120 min.
# The reactions were stopped and the unconsumed ATP was depleted by adding 5 μL ADP-glo Reagent (Promega, Cat #V9103) to the reaction. The plates were quickly centrifuged at 1000 rpm and incubated at r.t. for 40 min corresponding to full ATP depletion.
# The ADP was converted back to ATP and luciferase and luciferin were introduced to detect ATP by adding 10 μL kinase detection reagent (Promega, Cat #V9103) to the reaction. The plates were centrifuged for a few seconds at 1000 rpm and incubated at r.t. for a further 30 min.
# Luminescent read out was performed on an Envision luminescent reader (Perkin Elmer).
# For the automated assay, the compounds were prepared as a serial dilution of 10 point dose responses with 1/5 dilution steps in 100% DMSO starting from 2 mM highest concentration. […]
# Mouse Hepatocyte = test: Metabolic stability in mouse hepatocytes; format: in vitro ADME; conditions: mouse cryopreserved hepatocytes, 1 μM
# Protocol: (§1) The aim of this assay is to determine the metabolic stability of the compound in hepatocytes (cryopreserved) of different species. Low hepatocyte stability may result in the formation of unwanted metabolites, high clearance, and therefore is not desirable.
# (§2) A 10 mM stock solution of test compound in DMSO was first diluted in DMSO to 3 mM, and then in modified Krebs-Henseleit buffer (Sigma, K3753) to 5 μM. This compound dilution was added to a suspension of pooled cryopreserved hepatocytes (BioreclamationIVT) at 37° C. under gentle shaking.
# (§3) Final reaction conditions were: 1 μM of test compound, 0.03% DMSO, 0.5 million viable hepatocytes/mL, and 75 μL incubation volume.
# (§4) Testosterone (1 μM) and 7-hydroxycoumarin (1 μM) were used, respectively as phase I and phase II metabolic reaction controls.
# (§5) After 0, 10, 20, 45, 90, 120 and 180 min of incubation, the reaction was terminated with 225 μL of MeCN:MeOH (2:1) containing 100 ng/mL of diclofenac as analytical internal standard. Samples were mixed, centrifuged and the supernatant analyzed by LC-MS/MS.
# (§6) The instrument responses (ratios of test compound and internal standard peak areas) were referenced to the zero time point samples (considered as 100%) in order to determine the percentage of compound remaining.
# (§7) Plots of percentage compound remaining were used to determine the intrinsic clearance in the hepatocyte incubations using the following equations:
# (§8) Scaled Clint [L/h/kg]=Clint [μL/min/10^6 cells]*#(10) cells/g liver*60*(1/10^6) Scaled Clint unbound [L/h/kg]=Clint [L/h/kg]/Fu,inc where: fu,inc equals hepatocyte binding, derived from microsomal binding (fu,mic) by following equation: […]
# Human Hepatocyte = test: Metabolic stability in human hepatocytes; format: in vitro ADME; conditions: human cryopreserved hepatocytes, 1 μM
# Protocol: as §1, §2, §3, §4, §5, §6, §7, §8
# Thermodynamic solubility = format: physicochemical; conditions: Fasted State Simulated Intestine Fluid (FaSSIF), 37 °C, fassif, thermodynamic from solid, Fasted State Simulated Intestine Fluid, read-out: Tsol FaSSIF
# Protocol: In a 8 mL glass vial, 1-2 mg of dry matter of compound were added and stirred with the suitable buffers (Fed State Simulated Intestine Fluid, FeSSIF, or Fasted State Simulated Intestine Fluid, FaSSIF, or Fasted State Simulated Gastric Fluid, FaSSGF, or phosphate buffer pH 7.4) for 24 h at r.t. (for the buffer pH 7.4) or 37° C. (for the GI fluids). The concentration of the mixture was 1 mg/mL.
# A volume of 1000 μL were sampled, centrifuged for 10 min at 10 000 rpm and 500 μL of the supernatant were filtered on captiva plate. The samples are diluted in duplicates in DMSO (F100 and F10). Then, a final dilution (F100) in 80/20 H2O/MeCN containing the internal standard (warfarin) was used for LCMS-MS analysis.
# A standard curve was made starting from a 40,000 ng/mL stock in DMSO, freshly prepared from dry matter. Then, successive concentrations at 15,000, 11,000, 6,000, 2,500, 1,000, 375, 150 and 75 ng/mL in DMSO were prepared.
# Three quality control samples were made: one of 10,000, 1,500 and 200 ng/mL in DMSO, also starting from the DMSO working stock solution at 40,000 ng/mL.
# The standard curve and quality controls were diluted a F100 in 80/20 H2O/MeCN (with internal standard) and analyzed on LC/MS-MS (API4000 or API5500).
# The samples were analyzed on LC-MS with a flow rate of 0.6 mL/min. The mobile phase A was 0.1% formic acid in water and the mobile phase B was 0.1% formic acid in 90% MeCN and 10% of water. The sample was run under positive or negative ion spray on Pursuit C18—5 μm (2.0×20 mm) column, from Agilent.
# The ratio analyte/internal standard peaks areas of the standard curve were plotted in a graph and a linear or polynomial of the second order equation was used to calculate the unknown concentrations of the test compound.
# Solubility values were reported in μM and g/mL.
SMILES,IC50 (human IRAK-4) [nM],Mouse Hepatocyte stability (Perc. remaining at 90 min) (Mouse Hepatocyte) [Perc.],Human Hepatocyte stability (Perc. remaining at 90 min) (Human Hepatocyte) [Perc.],solubility thermodynamic at 24 h (Thermodynamic solubility) [µg/mL]
"CC(C)(C)NC(=O)c1cc2nc(C3CCOCC3)cn2cc1NC(=O)c1cccc(C(F)(F)F)n1 [Compound 18, N-(tert-butyl)-2-(tetrahydro-2H-pyran-4-yl)-6-(6-(trifluoromethyl)picolinamido)imidazo[1,2-a]pyridine-7-carboxamide]",10 to 50,–,–,–
"O=C(Nc1cn2cc(C3CCOCC3)nc2cc1C(=O)NC1COC1)c1cccc(C(F)(F)F)n1 [Compound 22, N-(oxetan-3-yl)-2-(tetrahydro-2H-pyran-4-yl)-6-(6-(trifluoromethyl)picolinamido)imidazo[1,2-a]pyridine-7-carboxamide]",10 to 50,–,–,–
"CCNC(=O)c1cc2nc(C3CCOCC3)cn2cc1NC(=O)c1cccc(C(F)(F)F)n1 [Compound 16, N-ethyl-2-(tetrahydro-2H-pyran-4-yl)-6-(6-(trifluoromethyl)picolinamido)imidazo[1,2-a]pyridine-7-carboxamide]",10 to 50,–,–,–
"COc1cc2nc(C3COCCO3)cn2cc1NC(=O)c1cccc(C(F)(F)F)n1 (stereo not shown) [Compound 4, N-[2-(1,4-dioxan-2-yl)-7-methoxy-imidazo[1,2-a]pyridin-6-yl]-6-(trifluoromethyl)pyridine-2-carboxamide]",0.1 to 5,103.55,85.9,–
"O=C(Nc1cn2cc(C3CCOCC3)nc2c(F)c1OCC(F)F)c1cccn(C2CC2)c1=O [Compound 19, 1-cyclopropyl-N-(7-(2,2-difluoroethoxy)-8-fluoro-2-(tetrahydro-2H-pyran-4-yl)imidazo[1,2-a]pyridin-6-yl)-2-oxo-1,2-dihydropyridine-3-carboxamide]",10 to 50,76.5,56.6,–
"O=C(Nc1cn2cc(C3CCOCC3)nc2cc1C(=O)NCC(F)F)c1cccc(C(F)(F)F)n1 [Compound 17, N-(2,2-difluoroethyl)-2-(tetrahydro-2H-pyran-4-yl)-6-(6-(trifluoromethyl)picolinamido)imidazo[1,2-a]pyridine-7-carboxamide]",5 to 10,–,–,–
"O=C(Nc1cn2cc(C3CCOCC3)nc2cc1C(=O)NCC(F)(F)F)c1cccc(C(F)(F)F)n1 [Compound 21, 2-(tetrahydro-2H-pyran-4-yl)-N-(2,2,2-trifluoroethyl)-6-(6-(trifluoromethyl)picolinamido)imidazo[1,2-a]pyridine-7-carboxamide]",10 to 50,–,–,–
"O=C(Nc1cn2cc(C3CCOCC3)nc2cc1C(=O)NC1CC1)c1cccc(C(F)(F)F)n1 [Compound 15, N-cyclopropyl-2-(tetrahydro-2H-pyran-4-yl)-6-(6-(trifluoromethyl)picolinamido)imidazo[1,2-a]pyridine-7-carboxamide]",10 to 50,–,–,–

# Other lines, results leading:
IC50 (human IRAK-4) [nM],Mouse Hepatocyte stability (Perc. remaining at 90 min) (Mouse Hepatocyte) [Perc.],Human Hepatocyte stability (Perc. remaining at 90 min) (Human Hepatocyte) [Perc.],solubility thermodynamic at 24 h (Thermodynamic solubility) [µg/mL],SMILES
5 to 10,75.1,85.35,–,"CCOc1c(NC(=O)c2cccn(C3CC3)c2=O)cn2cc(C3CCOCC3)nc2c1F [Compound 12, 1-cyclopropyl-N-(7-ethoxy-8-fluoro-2-(tetrahydro-2H-pyran-4-yl)imidazo[1,2-a]pyridin-6-yl)-2-oxo-1,2-dihydropyridine-3-carboxamide]"
10 to 50,–,99.95,86.2,"COc1cc2nc(C3COCCO3)cn2cc1NC(=O)c1cccn(C)c1=O (stereo not shown) [Compound 10, N-(2-(1,4-dioxan-2-yl)-7-methoxyimidazo[1,2-a]pyridin-6-yl)-1-methyl-2-oxo-1,2-dihydropyridine-3-carboxamide]"
10 to 50,–,–,–,"COc1cc2nc(C3CCS(=O)(=O)CC3)cn2cc1NC(=O)c1cccn(C)c1=O [Compound 24, N-(2-(1,1-dioxidotetrahydro-2H-thiopyran-4-yl)-7-methoxyimidazo[1,2-a]pyridin-6-yl)-1-methyl-2-oxo-1,2-dihydropyridine-3-carboxamide]"
